The experiment has as its target T1, BTK (Homo sapiens, UniProt Q06187).
T1 construct: endogenous in cells; host or cells: TMD-8 cells
The experiment is described as follows: BTK degradation in TMD-8 cells, HTRF assay after 6 h treatment. The experiment is classed as cell-based. The following applies: for DC50: IC50 (DC50) of BTK degradation; for Dmax: TMD8, maximum percentage of inhibition (degradation). The gist of the method: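 Remaining BTK was quantified by HTRF in lysates of TMD-8 cells after 6 h exposure to an 8-point, 6-fold compound series (500× stocks in DMSO starting at 1 mM; 0.2% DMSO). Lysis 30 min, antibodies overnight at room temperature, ratio read at 665/620 nm; DC50 fitted with a four-parameter logistic equation.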

Here are results for 18 compounds from patent US20230322761A1, “DEGRADATION OF BRUTON'S TYROSINE KINASE (BTK) BY CONJUGATION OF BTK INHIBITORS WITH E3 LIGASE LIGAND AND METHODS OF USE” (BEIGENE, LTD., priority 2020, published 2023).

T1 sequence (Q06187 whole entry): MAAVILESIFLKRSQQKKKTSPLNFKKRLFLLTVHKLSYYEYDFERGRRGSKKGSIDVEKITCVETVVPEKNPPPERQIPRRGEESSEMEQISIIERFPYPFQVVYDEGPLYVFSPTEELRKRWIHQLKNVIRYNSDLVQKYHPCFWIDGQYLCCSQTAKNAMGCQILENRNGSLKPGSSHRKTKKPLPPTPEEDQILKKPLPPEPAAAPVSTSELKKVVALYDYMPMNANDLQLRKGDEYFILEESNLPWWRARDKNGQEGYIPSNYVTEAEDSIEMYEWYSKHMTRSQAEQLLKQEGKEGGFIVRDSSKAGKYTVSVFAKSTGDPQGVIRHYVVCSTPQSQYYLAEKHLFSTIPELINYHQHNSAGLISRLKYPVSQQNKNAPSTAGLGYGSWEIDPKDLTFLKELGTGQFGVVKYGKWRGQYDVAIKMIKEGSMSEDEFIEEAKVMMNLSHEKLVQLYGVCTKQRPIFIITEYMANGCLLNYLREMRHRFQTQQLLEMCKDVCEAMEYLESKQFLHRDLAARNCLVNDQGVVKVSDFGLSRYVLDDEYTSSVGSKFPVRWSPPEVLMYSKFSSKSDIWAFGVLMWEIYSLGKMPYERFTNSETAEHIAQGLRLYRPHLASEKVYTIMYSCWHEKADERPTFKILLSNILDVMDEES

The compound `Cc1cc(-c2n[nH]c3ncc(-c4ccc(N5CCN(CC6CCN(c7ccc(N8CCC(=O)NC8=O)c(C)c7)CC6)CC5)nc4)cc23)ccc1CNC(=O)c1nc(C(C)(C)C)no1` [Example 228, 3-(tert-butyl)-N-(4-(5-(6-(4-((1-(4-(2,4-dioxotetrahydropyrimidin-1(2H)-yl)-3-methylphenyl)piperidin-4-yl)methyl)piperazin-1-yl)pyridin-3-yl)-1H-pyrazolo[3,4-b]pyridin-3-yl)-2-methylbenzyl)-1,2,4-oxadiazole-5-carboxamide] gave a 50% degradation concentration (DC50) of 2.02 nM. The compound `Cc1cc(-c2n[nH]c3ncc(-c4ccc(N5CCN(CCc6ccc(C7CCC(=O)NC7=O)cc6)CC5)cc4)cc23)ccc1[C@@H](C)NC(=O)c1noc(C(C)(C)C)n1` (stereo partly drawn) [Example 35, 5-(tert-butyl)-N-((1R)-1-(4-(5-(4-(4-(4-(2,6-dioxopiperidin-3-yl)phenethyl)piperazin-1-yl)phenyl)-1H-pyrazolo[3,4-b]pyridin-3-yl)-2-methylphenyl)ethyl)-1,2,4-oxadiazole-3-carboxamide] showed a 50% degradation concentration (DC50) of 1.9 nM and a Dmax of 93%. For `Cc1cc(-c2n[nH]c3ncc(-c4ccc(N5CCN(CC6CCN(c7ccc(N8CCC(=O)NC8=O)cc7)CC6)CC5)nc4)cc23)ccc1CNC(=O)c1nc(C(C)(C)C)no1` [Example 68, 3-(tert-butyl)-N-(4-(5-(6-(4-((1-(4-(2,4-dioxotetrahydropyrimidin-1(2H)-yl)phenyl)piperidin-4-yl)methyl)piperazin-1-yl)pyridin-3-yl)-1H-pyrazolo[3,4-b]pyridin-3-yl)-2-methylbenzyl)-1,2,4-oxadiazole-5-carboxamide], the DC50 was determined as 1.47 nM. Consider `CC(C)(C)c1noc(C(=O)NCc2ccc(-c3n[nH]c4ncc(-c5ccc(N6CCN(CC7CCN(c8ccc(N9CCC(=O)NC9=O)cc8)CC7)CC6)cc5)cc34)cc2F)n1` [Example 11, 3-(tert-butyl)-N-(4-(5-(4-(4-((1-(4-(2,4-dioxotetrahydropyrimidin-1(2H)-yl)phenyl)piperidin-4-yl)methyl)piperazin-1-yl)phenyl)-1H-pyrazolo[3,4-b]pyridin-3-yl)-2-fluorobenzyl)-1,2,4-oxadiazole-5-carboxamide], for which the 50% degradation concentration (DC50) was 5.98 nM and the maximal degradation (Dmax) was 94.1%. `Cc1cc(-c2n[nH]c3ncc(-c4ccc(N5CCN(CC(C)c6ccc(N7CCC(=O)NC7=O)cc6)CC5)cc4)cc23)ccc1[C@@H](C)NC(=O)c1noc(C(C)(C)C)n1` (stereo partly drawn) [Example 160, 5-(tert-butyl)-N-((1R)-1-(4-(5-(4-(4-(2-(4-(2,4-dioxotetrahydropyrimidin-1(2H)-yl)phenyl)propyl)piperazin-1-yl)phenyl)-1H-pyrazolo[3,4-b]pyridin-3-yl)-2-methylphenyl)ethyl)-1,2,4-oxadiazole-3-carboxamide] registered a 50% degradation concentration (DC50) of 10.6 nM. In turn, `CC(C)(C)c1nc(C(=O)NCc2ccc(-c3n[nH]c4ncc(-c5ccc(N6CCN(CC7CCN(c8ccc(N9CCC(=O)NC9=O)cc8)CC7)CC6)cc5)cc34)cc2CO)no1` [Example 121, 5-(tert-butyl)-N-(4-(5-(4-(4-((1-(4-(2,4-dioxotetrahydropyrimidin-1(2H)-yl)phenyl)piperidin-4-yl)methyl)piperazin-1-yl)phenyl)-1H-pyrazolo[3,4-b]pyridin-3-yl)-2-(hydroxymethyl)benzyl)-1,2,4-oxadiazole-3-carboxamide] yielded a half-maximal degradation concentration (DC50) of 2.39 nM. On the same count and under the same terms, in the case of `Cc1cc(CCN2CC3CC2CN3c2ccc(-c3cnc4[nH]nc(-c5ccc([C@@H](C)NC(=O)c6noc(C(C)(C)C)n6)c(C)c5)c4c3)nc2)ncc1C1CCC(=O)NC1=O` (stereo partly drawn) [Example 173, 5-(tert-butyl)-N-((1R)-1-(4-(5-(5-(5-(2-(5-(2,6-dioxopiperidin-3-yl)-4-methylpyridin-2-yl)ethyl)-2,5-diazabicyclo[2.2.1]heptan-2-yl)pyridin-2-yl)-1H-pyrazolo[3,4-b]pyridin-3-yl)-2-methylphenyl)ethyl)-1,2,4-oxadiazole-3-carboxamide] it was more than 2000 nM; in that of `Cc1cc(-c2n[nH]c3ncc(-c4ccc(N5CCN(CCc6ccc(C7CCC(=O)NC7=O)cc6)CC5)cn4)cc23)ccc1[C@@H](C)NC(=O)c1noc(C(C)(C)C)n1` (stereo partly drawn) [Example 116, 5-(tert-butyl)-N-((1R)-1-(4-(5-(5-(4-(4-(2,6-dioxopiperidin-3-yl)phenethyl)piperazin-1-yl)pyridin-2-yl)-1H-pyrazolo[3,4-b]pyridin-3-yl)-2-methylphenyl)ethyl)-1,2,4-oxadiazole-3-carboxamide], 1.05 nM.

`Cc1cc(-c2n[nH]c3ncc(-c4ccc(C5CCN(CCc6ccc(C7CCC(=O)NC7=O)cc6)CC5)cc4)cc23)ccc1CNC(=O)c1nc(C(C)(C)C)no1` (centres unmarked) [Example 9, 3-(tert-butyl)-N-(4-(5-(4-(1-(4-(2,6-dioxopiperidin-3-yl)phenethyl)piperidin-4-yl)phenyl)-1H-pyrazolo[3,4-b]pyridin-3-yl)-2-methylbenzyl)-1,2,4-oxadiazole-5-carboxamide] displayed a DC50 of 1.9 nM and a Dmax of 100%. On to `Cc1c([C@@H](C)NC(=O)c2nc(C(C)(C)C)no2)ccc(-c2n[nH]c3ncc(-c4ccc(N5CCN(CC6CCN(c7ccc(N8CCC(=O)NC8=O)cc7)CC6)CC5)cc4)cc23)c1F` [Example 45, (R)-3-(tert-butyl)-N-(1-(4-(5-(4-(4-((1-(4-(2,4-dioxotetrahydropyrimidin-1(2H)-yl)phenyl)piperidin-4-yl)methyl)piperazin-1-yl)phenyl)-1H-pyrazolo[3,4-b]pyridin-3-yl)-3-fluoro-2-methylphenyl)ethyl)-1,2,4-oxadiazole-5-carboxamide], for which it took 2.15 nM to reach half-maximal degradation (DC50).

Turning to `CC(C)(C)c1noc(C(=O)NCc2ccc(-c3n[nH]c4ncc(-c5ccc(C6CCN(CCc7ccc(N8CCC(=O)NC8=O)cc7)CC6)cc5)cc34)cc2F)n1` [Example 13, 3-(tert-butyl)-N-(4-(5-(4-(1-(4-(2,4-dioxotetrahydropyrimidin-1(2H)-yl)phenethyl)piperidin-4-yl)phenyl)-1H-pyrazolo[3,4-b]pyridin-3-yl)-2-fluorobenzyl)-1,2,4-oxadiazole-5-carboxamide], it took 25.7 nM to reach half-maximal degradation (DC50) and the greatest degradation seen (Dmax) was 93%. Take `Cc1cc(-c2n[nH]c3ncc(-c4ccc(N5CCN(CC6CCN(c7ccc(N8CCC(=O)NC8=O)c(Cl)c7)CC6)CC5)cc4)cc23)ccc1[C@@H](C)NC(=O)c1noc(C(C)(C)C)n1` [Example 115, (R)-5-(tert-butyl)-N-(1-(4-(5-(4-(4-((1-(3-chloro-4-(2,4-dioxotetrahydropyrimidin-1(2H)-yl)phenyl)piperidin-4-yl)methyl)piperazin-1-yl)phenyl)-1H-pyrazolo[3,4-b]pyridin-3-yl)-2-methylphenyl)ethyl)-1,2,4-oxadiazole-3-carboxamide]: the DC50 amounted to 4.87 nM. With `Cc1cc(-c2n[nH]c3ncc(-c4ccc(C5CCN(CC6CCN(c7ccc(N8CCC(=O)NC8=O)cc7)CC6)CC5)cc4)cc23)ccc1CNC(=O)c1noc(C(C)(C)C)n1` [Example 1, 5-(tert-butyl)-N-(4-(5-(4-(1-((1-(4-(2,4-dioxotetrahydropyrimidin-1(2H)-yl)phenyl)piperidin-4-yl)methyl)piperidin-4-yl)phenyl)-1H-pyrazolo[3,4-b]pyridin-3-yl)-2-methylbenzyl)-1,2,4-oxadiazole-3-carboxamide], half-maximal degradation (DC50) was put at 0.978 nM and the maximal degradation (Dmax) came to 96.7%.

Consider `Cc1cc(-c2n[nH]c3ncc(-c4ccc(N5CCN(CC6CCN(c7ccc(N8CCC(=O)NC8=O)cc7)CC6)CC5)cc4)cc23)ccc1[C@@H](C)NC(=O)c1nc(C2(C)CC2)no1` [Example 213, (R)—N-(1-(4-(5-(4-(4-((1-(4-(2,4-dioxotetrahydropyrimidin-1(2H)-yl)phenyl)piperidin-4-yl)methyl)piperazin-1-yl)phenyl)-1H-pyrazolo[3,4-b]pyridin-3-yl)-2-methylphenyl)ethyl)-3-(1-methylcyclopropyl)-1,2,4-oxadiazole-5-carboxamide], for which the DC50 was 5.04 nM. In other words, the single-digit nanomolar range. `Cc1cc(-c2n[nH]c3ncc(-c4ccc(N5CCN(CC6CCN(c7ccc(N8CCC(=O)NC8=O)cc7)CC6)CC5)c(C)c4)cc23)ccc1[C@@H](C)NC(=O)c1noc(C(C)(C)C)n1` [Example 102, (R)-5-(tert-butyl)-N-(1-(4-(5-(4-(4-((1-(4-(2,4-dioxotetrahydropyrimidin-1(2H)-yl)phenyl)piperidin-4-yl)methyl)piperazin-1-yl)-3-methylphenyl)-1H-pyrazolo[3,4-b]pyridin-3-yl)-2-methylphenyl)ethyl)-1,2,4-oxadiazole-3-carboxamide] displayed a half-maximal degradation concentration (DC50) of 9.72 nM. Regarding `Cc1cc(-c2n[nH]c3ncc(-c4ccc(N5CCN(CCc6ccc([C@H]7CCC(=O)NC7=O)cc6)CC5)cn4)cc23)ccc1[C@@H](C)NC(=O)c1noc(C(C)(C)C)n1` [Example 162, 5-(tert-butyl)-N—((R)-1-(4-(5-(5-(4-(4-((R)-2,6-dioxopiperidin-3-yl)phenethyl)piperazin-1-yl)pyridin-2-yl)-1H-pyrazolo[3,4-b]pyridin-3-yl)-2-methylphenyl)ethyl)-1,2,4-oxadiazole-3-carboxamide], the DC50 was found to be 1.01 nM. In turn, `Cc1cc(-c2n[nH]c3ncc(-c4ccc(N5CCN(CCc6ccc([C@@H]7CCC(=O)NC7=O)cc6)CC5)cn4)cc23)ccc1[C@@H](C)NC(=O)c1noc(C(C)(C)C)n1` [Example 161, 5-(tert-butyl)-N—((R)-1-(4-(5-(5-(4-(4-((S)-2,6-dioxopiperidin-3-yl)phenethyl)piperazin-1-yl)pyridin-2-yl)-1H-pyrazolo[3,4-b]pyridin-3-yl)-2-methylphenyl)ethyl)-1,2,4-oxadiazole-3-carboxamide] displayed a DC50 of 5.27 nM. Compound `Cc1cc(-c2n[nH]c3ncc(-c4ccc(N5CCN(CC6CCN(c7ccc(N8CCC(=O)NC8=O)cc7)CC6)CC5)cc4)cc23)ccc1[C@@H](C)NC(=O)c1nnc(C(C)(C)C)o1` [Example 225, (R)-5-(tert-butyl)-N-(1-(4-(5-(4-(4-((1-(4-(2,4-dioxotetrahydropyrimidin-1(2H)-yl)phenyl)piperidin-4-yl)methyl)piperazin-1-yl)phenyl)-1H-pyrazolo[3,4-b]pyridin-3-yl)-2-methylphenyl)ethyl)-1,3,4-oxadiazole-2-carboxamide] came in with a half-maximal degradation concentration (DC50) of 9.45 nM.
